# Assays:
# DU145 cells = assay: Proliferation assay DU145; format: cell-based, human; settings: Homo sapiens, DU-145, 96 h, 4 days, crystal violet; read-out: Inhibition of DU145 cell proliferation IC50
# Procedure: Cultivated tumour cells (HeLa, human cervical tumour cells, ATCC CCL-2; NCI-H460, human non-small cell lung carcinoma cells, ATCC HTB-177; A2780, human ovarian carcinoma cells, ECACC #93112519; DU 145, hormone-independent human prostate carcinoma cells, ATCC HTB-81; HeLa-MaTu-ADR, multidrug-resistant human cervical carcinoma cells, EPO-GmbH Berlin; Caco-2, human colorectal carcinoma cells, ATCC HTB-37; B16F10, mouse melanoma cells, ATCC CRL-6475) were plated at a density of 5,000 cells/well (DU145, HeLa-MaTu-ADR), 3,000 cells/well (NCI-H460, HeLa), 2,500 cells/well (A2780), 1,500 cells/well (Caco-2), or 1,000 cells/well (B16F10) in a 96-well multititer plate in 200 μL of their respective growth medium supplemented 10% fetal calf serum. After 24 hours, the cells of one plate (zero-point plate) were stained with crystal violet (see below), while the medium of the other plates was replaced by fresh culture medium (200 μl), to which the test substances were added in various concentrations (0 μM, as well as in the range of 0.001-10 μM). The cells were incubated for 4 days in the presence of test substances. Cell proliferation was determined by staining the cells with crystal violet: the cells were fixed by adding 20 μl/measuring point of an 11% glutaric aldehyde solution for 15 minutes at room temperature. After three washing cycles of the fixed cells with water, the plates were dried at room temperature. The cells were stained by adding 100 μl/measuring point of a 0.1% crystal violet solution (pH 3.0). After three washing cycles of the stained cells with water, the plates were dried at room temperature. The dye was dissolved by adding 100 μl/measuring point of a 10% acetic acid solution. The extinction was determined by photometry at a wavelength of 595 nm. The change of cell number, in percent, was calculated by normalization of the measured values to the extinction values of the zero-point plate (=0%) and the extinction of the untreated (0 μm) cells (=100%). The IC50 values (inhibitory concentration at 50% of maximal effect) were determined by means of a 4 parameter fit. Non-adherent MOLM-13 human acute myeloid leukemia cells (DSMZ ACC 554) were seeded at a density of 5,000 cells/well in a 96-well multititer plate in 100 μL of growth medium supplemented 10% fetal calf serum. After 24 hours, cell viability of one plate (zero-point plate) was determined with the Cell Titre-Glo Luminescent Cell Viability Assay (Promega), while 50 μL of test compound containing medium was added to the wells of the other plates (final concentrations in the range of 0.001-1 μM and DMSO controls). Cell viability was assessed after 72-hour exposure with the Cell Titre-Glo Luminescent Cell Viability Assay (Promega). IC50 values (inhibitory concentration at 50% of maximal effect) were determined by means of a 4 parameter fit on measurement data which were normalized to vehicle (DMSO) treated cells (=100%) and measurement readings taken immediately before compound exposure (=0%).
# CDK2/CycE = target: T1, CDK2/CycE (Homo sapiens, UniProt P24941); assay: CDK2/CycE kinase assay (TR-FRET, Method 2a); format: biochemical; settings: 10 μM ATP
# T1 construct: GST; purchased ProQinase GmbH (Freiburg, Germany); host or cells: insect cells (Sf9)
# From the text: 2a. CDK2/CycE Kinase Assay:
# CDK2/CycE-inhibitory activity of compounds of the present invention was quantified employing the CDK2/CycE TR-FRET assay as described in the following paragraphs:
# Recombinant fusion proteins of GST and human CDK2 and of GST and human CycE, expressed in insect cells (Sf9) and purified by Glutathion-Sepharose affinity chromatography, were purchased from ProQinase GmbH (Freiburg, Germany). As substrate for the kinase reaction biotinylated peptide biotin-Ttds-YISPLKSPYKISEG (C-terminus in amid form) was used which can be purchased e.g. from the company JERINI Peptide Technologies (Berlin, Germany).
# For the assay 50 nl of a 100 fold concentrated solution of the test compound in DMSO was pipetted into a black low volume 384 well microtiter plate (Greiner Bio-One, Frickenhausen, Germany), 2 μl of a solution of CDK2/CycE in aqueous assay buffer [50 mM Tris/HCl pH 8.0, 10 mM MgCl2, 1.0 mM dithiothreitol, 0.1 mM sodium ortho-vanadate, 0.01% (v/v) Nonidet-P40 (Sigma)] were added and the mixture was incubated for 15 min at 22° C. to allow pre-binding of the test compounds to the enzyme before the start of the kinase reaction. […] The concentration of CDK2/CycE was adjusted depending of the activity of the enzyme lot and was chosen appropriate to have the assay in the linear range, typical concentrations were in the range of 130 ng/mL. The reaction was stopped by the addition of 5 μl of a solution of TR-FRET detection reagents (0.2 μM streptavidine-XL665 [Cisbio Bioassays, Codolet, France] and 1 nM anti-RB(pSer807/pSer811)-antibody from BD Pharmingen [#558389] and 1.2 nM LANCE EU-W1024 labeled anti-mouse IgG antibody [Perkin-Elmer, product no. AD0077]) in an aqueous EDTA-solution (100 mM EDTA, 0.2% (w/v) bovine serum albumin in 100 mM HEPES pH 7.5).
# The resulting mixture was incubated 1 h at 22° C. to allow the formation of complex between the phosphorylated biotinylated peptide and the detection reagents. Subsequently the amount of phosphorylated substrate was evaluated by measurement of the resonance energy transfer from the Eu-chelate to the streptavidine-XL. Therefore, the fluorescence emissions at 620 nm and 665 nm after excitation at 350 nm was measured in a TR-FRET reader, e.g. a Rubystar (BMG Labtechnologies, Offenburg, Germany) or a Viewlux (Perkin-Elmer). The ratio of the emissions at 665 nm and at […] was taken as the measure for the amount of phosphorylated substrate. The data were normalised (enzyme reaction without inhibitor=0% inhibition, all other assay components but no enzyme=100% inhibition).
Compound,IC50 (DU145 cells),IC50 (CDK2/CycE)
"CS(=N)(=O)Cc1cc2cc(c1)OCCCCOc1cc(F)ccc1-c1nc(ncc1F)N2 (racemic) [Example 1, (rac)-16,20-Difluoro-9-[(S-methylsulfonimidoyl)methyl]-2,3,4,5-tetrahydro-12H-13,17-(azeno)-11,7-(metheno)-1,6,12,14-benzodioxadiazacyclononadecine]",10 nM,21.2 nM
"C[S+]([O-])Cc1cc2nc(c1)OCCCOc1cc(F)ccc1-c1cc(ncc1F)N2 (racemic) [Example 4, (rac)-15,19-Difluoro-8-[(methylsulfinyl)methyl]-3,4-dihydro-2H,11H-10,6-(azeno)-12,16-(metheno)-1,5,11,13-benzodioxadiazacyclooctadecine]",11 nM,4.6 nM
"CS(=N)(=O)Cc1cc2nc(c1)OCCCOc1cc(F)ccc1-c1cc(ncc1F)N2 (racemic) [Example 5, (rac)-15,19-Difluoro-8-[(S-methylsulfonimidoyl)methyl]-3,4-dihydro-2H,11H-10,6-(azeno)-12,16-(metheno)-1,5,11,13-benzodioxadiazacyclooctadecine]",4 nM,2 nM
"C[S+]([O-])Cc1cc2nc(c1)OCCOc1cc(F)ccc1-c1cc(ncc1F)N2 (racemic) [Example 10, (rac)-14,18-difluoro-7-[(methylsulfinyl)methyl]-2,3-dihydro-10H-9,5-(azeno)-11,15-(metheno)-1,4,10,12-benzodioxadiazacycloheptadecine]",324 nM,415 nM
"CS(=N)(=O)Cc1cc2nc(c1)OCCOc1cc(F)ccc1-c1cc(ncc1F)N2 (racemic) [Example 11, (rac)-14,18-difluoro-7-[(S-methylsulfonimidoyl)methyl]-2,3-dihydro-10H-9,5-(azeno)-11,15-(metheno)-1,4,10,12-benzodioxadiazacycloheptadecine]",159 nM,180 nM
"C[S+]([O-])Cc1cc2nc(c1)OCCCCOc1cc(F)ccc1-c1cc(ncc1F)N2 (racemic) [Example 13, (rac)-16,20-difluoro-9-[(methylsulfinyl)methyl]-2,3,4,5-tetrahydro-12H-11,7-(azeno)-13,17-(metheno)-1,6,12,14-benzodioxadiazacyclononadecine]",30 nM,16.7 nM
"CS(=N)(=O)Cc1cc2nc(c1)OCCCCOc1cc(F)ccc1-c1cc(ncc1F)N2 (racemic) [Example 14, (rac)-16,20-difluoro-9-[(S-methylsulfonimidoyl)methyl]-2,3,4,5-tetrahydro-12H-11,7-(azeno)-13,17-(metheno)-1,6,12,14-benzodioxadiazacyclononadecine]",16 nM,19.8 nM
"CS(=N)(=O)Cc1cc2cc(c1)OCCCOc1cc(F)ccc1-c1nc(ncc1F)N2 (racemic) [Example 15, (rac)-15,19-difluoro-8-[(S-methylsulfonimidoyl)methyl]-3,4-dihydro-2H,11H-12,16-(azeno)-10,6-(metheno)-1,5,11,13-benzodioxadiazacyclooctadecine]",17 nM,26 nM
"CS(=O)(Cc1cc2cc(c1)OCCCOc1cc(F)ccc1-c1nc(ncc1F)N2)=NC(=O)C(F)(F)F (racemic) [Example 16, (rac)-N-[{[15,19-difluoro-3,4-dihydro-2H,11H-12,16-(azeno)-10,6-(metheno)-1,5,11,13-benzodioxadiazacyclooctadecin-8-yl]methyl}(methyl)oxido-λ^6-sulfanylidene]-2,2,2-trifluoroacetamide]",17 nM,58.2 nM
"CCNC(=O)N=S(C)(=O)Cc1cc2nc(c1)OCCCOc1cc(F)ccc1-c1cc(ncc1F)N2 (racemic) [Example 17, (rac)-1-[{[15,19-difluoro-3,4-dihydro-2H,11H-10,6-(azeno)-12,16-(metheno)-1,5,11,13-benzodioxadiazacyclooctadecin-8-yl]methyl}(methyl)oxido-λ^6-sulfanylidene]-3-ethylurea]",36 nM,5.6 nM
"CC(=O)N=S(C)(=O)Cc1cc2nc(c1)OCCCOc1cc(F)ccc1-c1cc(ncc1F)N2 (racemic) [Example 18, (rac)-N-[{[15,19-difluoro-3,4-dihydro-2H,11H-10,6-(azeno)-12,16-(metheno)-1,5,11,13-benzodioxadiazacyclooctadecin-8-yl]methyl}(methyl)oxido-λ^6-sulfanylidene]acetamide]",26 nM,8.2 nM
"CN=S(C)(=O)Cc1cc2nc(c1)OCCCOc1cc(F)ccc1-c1cc(ncc1F)N2 (racemic) [Example 19, (rac)-8-[(N,S-dimethylsulfonimidoyl)methyl]-15,19-difluoro-3,4-dihydro-2H,11H-10,6-(azeno)-12,16-(metheno)-1,5,11,13-benzodioxadiazacyclooctadecine]",78 nM,15.4 nM
"CCOC(=O)N=S(C)(=O)Cc1cc2nc(c1)OCCCOc1cc(F)ccc1-c1cc(ncc1F)N2 (racemic) [Example 20, (rac)-ethyl [{[15,19-difluoro-3,4-dihydro-2H,11H-10,6-(azeno)-12,16-(metheno)-1,5,11,13-benzodioxadiazacyclooctadecin-8-yl]methyl}(methyl)oxido-λ^6-sulfanylidene]carbamate]",55 nM,11.7 nM
"CS(=O)(Cc1cc2nc(c1)OCCCOc1cc(F)ccc1-c1cc(ncc1F)N2)=NC(=O)OCCCl (racemic) [Example 21, (rac)-2-chloroethyl [{[15,19-difluoro-3,4-dihydro-2H,11H-10,6-(azeno)-12,16-(metheno)-1,5,11,13-benzodioxadiazacyclooctadecin-8-yl]methyl}(methyl)oxido-λ^6-sulfanylidene]carbamate]",31 nM,11.6 nM
"CSCc1cc2nc(c1)OCCOc1cc(F)ccc1-c1cc(ncc1F)N2 [Example 9, 14,18-Difluoro-7-[(methylsulfanyl)methyl]-2,3-dihydro-10H-9,5-(azeno)-11,15-(metheno)-1,4,10,12-benzodioxadiazacycloheptadecine]",–,18200 nM

# From patent US9963464B2, “Macrocyclic compounds” (Bayer Pharma Aktiengesellschaft, priority 2014, dated 2018)
